Data: US20090304725A1, “Vaccine and Antigen Mimotopes Against Cancerous Diseases Associated with the Carcinoembryonic Antigen CEA” (Medizinische Universitat Wien, priority 2006, published 2009)
Bridge positions count the residues as written; N and C are the ends. Ends that are not written are not given here.

Columns and labels:
[1] = test system: SW480 CEA-negative colon cancer cells; test: Cytotoxicity assay on CEA-negative control cell line; format: cell-based; details: sera of immunized mice
Method: (§1) FIG. 6: CDC reaction in vitro. Effects of the mimotope induced antibodies in mediating complement-dependent cytotoxicity. The reaction was determined against the CEA positive cell line HT 29 and against the CEA negative cell line SW 480. Mouse immune sera in different concentrations were tested on the two cell lines. Sera from CEA-MAM immunized mice were used 1:50 (black columns; 1) and 1:100 (white column; 2). The antibody Col-1 (3), the isotype control antibodies IgG2a (4) and IgM (5) were used as negative controls.
(§2) FIG. 7: ADCC reaction in vitro. Effects of the antibody-dependent cytotoxicity. The reaction was determined against the CEA positive cell line HT 29 and against the CEA negative cell line SW 480. The CEA-MAP serum was used 1:50 (black columns; 1). The mice immunized with a control-MAP (2) or alum alone (3) and the Col-1 antibody (4) were used as negative controls.
Complement-dependent cytotoxicity (CDC) and antibody-dependent-cytotoxicity (ADCC) effectivity of the antibodies induced by mimotope vaccination were measured with the CytoTox 96 Nonradioactive Cytotoxicity assay (Promega, Madison, Wis.). HT29 CEA overexpressing cells were used as positive target cells. […] All assay procedures and readouts were done as described in the manufacturers description. […] The results of the cytotoxicity was calculated as follows: […]

[2] = test system: HT29 CEA overexpressing cells; test: Complement-dependent cytotoxicity (CDC) assay, CytoTox 96; format: cell-based; details: highest value corrected to 100%
Method: as §1
(§3) Complement-dependent cytotoxicity (CDC) and antibody-dependent-cytotoxicity (ADCC) effectivity of the antibodies induced by mimotope vaccination were measured with the CytoTox 96 Nonradioactive Cytotoxicity assay (Promega, Madison, Wis.). HT29 CEA overexpressing cells were used as positive target cells. SW480 CEA-negative colon cancer cells served as a negative target control cell line. The number of both target cells was optimized to 2×10^5 cells/ml. For CDC reactions (FIG. 6), pooled fifth immune sera were diluted 1:50 (1) or 1:100 (2) in CytoTox 96 assay medium. Additionally, the antibody Col-1 (3), an IgG2a (4) and an IgM (5) antibody (Sigma, Vienna, Austria) served as negative controls. […] All assay procedures and readouts were done as described in the manufacturers description. […] The results of the cytotoxicity was calculated as follows: […]

[3] = test system: HT29 CEA overexpressing cells; test: Antibody-dependent cytotoxicity (ADCC) assay, CytoTox 96; format: cell-based; details: pooled fifth immune sera of immunized mice diluted 1:50; naive BALB/c spleen cells as effector cells
Method: as §2
as §3, with “controls. Spleen cells of naïve BALB/c mice were prepared by mashing the spleen and lysing the erythrocytes with ammonium chloride and used as effector cells.” for “controls.”

[4] = test system: CEA antigen binding to anti-CEA antibody Col-1; test: Mimicry test, competitive ELISA on coated CEA antigen with Col-1; parameters: species or system human; details: phages at 5*10^10, 1*10^10, 1*10^9 particles per ml, simultaneously with Col-1
Method: FIG. 3: Mimicry analysis in ELISA competition assay. Coated CEA antigen is detected by Col-1 antibody, rendering a maximal signal of 1,4. Simultaneous incubation was done with titrated phage clones (white columns highest, grey: medium, black: least concentration of phage clones). Bound Col-1 was detected with anti-mouse IgG-peroxidase labelled. X-axis: clone names, Y-axis: colour intensity at OD450-630 nm.
The CEA antigen (human purified; Sigma, St. Louis) was used for coating ELISA plates. After blocking and washing, mimotopes phages were added to wells in three concentrations (5*10^10, 1*10^10, 1*10^9 particles per ml) simultaneously with antibody Col-1. In a final step, bound Col-1 antibody was detected by a peroxidase-labeled anti-mouse antibody. TMB substrate (BD Biosciences, San Diego, Calif.) was added for development of the colour and signal intensity measured in ELISA reader at OD450-630. […] This assay evidenced that selected mimotopes are mimics of the Col-1 epitope on CEA antigen.

[5] = target: CEA antigen (human purified; Sigma, St. Louis) (human) (UniProt P06731); test: ELISA, CEA coated, bound Col-1 detected with anti-mouse IgG-peroxidase (FIG. 3)
Chain of UniProt P06731 (P06731 35-685 limits assumed): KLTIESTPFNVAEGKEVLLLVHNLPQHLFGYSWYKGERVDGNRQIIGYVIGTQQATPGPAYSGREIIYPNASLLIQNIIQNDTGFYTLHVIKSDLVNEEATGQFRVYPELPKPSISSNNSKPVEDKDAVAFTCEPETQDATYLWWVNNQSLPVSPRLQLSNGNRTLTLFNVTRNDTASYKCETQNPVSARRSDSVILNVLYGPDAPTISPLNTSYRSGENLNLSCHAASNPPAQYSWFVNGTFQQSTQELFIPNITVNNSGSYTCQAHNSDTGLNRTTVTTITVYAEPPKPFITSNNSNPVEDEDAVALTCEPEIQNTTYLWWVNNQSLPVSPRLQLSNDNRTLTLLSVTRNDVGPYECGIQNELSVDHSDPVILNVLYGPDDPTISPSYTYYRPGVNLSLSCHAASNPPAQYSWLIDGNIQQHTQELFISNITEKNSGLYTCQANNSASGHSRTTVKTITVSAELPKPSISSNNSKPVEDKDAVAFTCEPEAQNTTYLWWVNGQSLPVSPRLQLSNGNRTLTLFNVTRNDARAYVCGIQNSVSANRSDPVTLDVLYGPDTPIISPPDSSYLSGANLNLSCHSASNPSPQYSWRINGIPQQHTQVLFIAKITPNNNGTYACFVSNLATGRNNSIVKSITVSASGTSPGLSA

CC(C)C[C@H](NC(=O)CNC(=O)CNC(=O)[C@H](CCCNC(=N)N)NC(=O)[C@@H](N)CC(=O)O)C(=O)N[C@@H](Cc1c[nH]c2ccccc12)C(=O)N[C@@H](CCCCN)C(=O)N[C@H](C(=O)N1CCC[C@H]1C(=O)NCCCC[C@H](NC(=O)[C@@H]1CCCN1C(=O)[C@@H](NC(=O)[C@H](CCCCN)NC(=O)[C@H](Cc1c[nH]c2ccccc12)NC(=O)[C@H](CC(C)C)NC(=O)CNC(=O)CNC(=O)[C@H](CCCNC(=N)N)NC(=O)[C@@H](N)CC(=O)O)[C@@H](C)O)C(=O)NCCCC[C@H](NC(=O)[C@H](CCCCNC(=O)[C@@H]1CCCN1C(=O)[C@@H](NC(=O)[C@H](CCCCN)NC(=O)[C@H](Cc1c[nH]c2ccccc12)NC(=O)[C@H](CC(C)C)NC(=O)CNC(=O)CNC(=O)[C@H](CCCNC(=N)N)NC(=O)[C@@H](N)CC(=O)O)[C@@H](C)O)NC(=O)[C@@H]1CCCN1C(=O)[C@@H](NC(=O)[C@H](CCCCN)NC(=O)[C@H](Cc1c[nH]c2ccccc12)NC(=O)[C@H](CC(C)C)NC(=O)CNC(=O)CNC(=O)[C@H](CCCNC(=N)N)NC(=O)[C@@H](N)CC(=O)O)[C@@H](C)O)C(=O)NCC(=O)NCC(=O)N[C@@H](CSCC(=O)NCCCCCCNC(=O)CSC[C@H](NC(=O)CNC(=O)CNC(=O)[C@H](CCCCNC(=O)[C@H](CCCCNC(=O)[C@@H]1CCCN1C(=O)[C@@H](NC(=O)[C@H](CCCCN)NC(=O)[C@H](Cc1c[nH]c2ccccc12)NC(=O)[C@H](CC(C)C)NC(=O)CNC(=O)CNC(=O)[C@H](CCCNC(=N)N)NC(=O)[C@@H](N)CC(=O)O)[C@@H](C)O)NC(=O)[C@@H]1CCCN1C(=O)[C@@H](NC(=O)[C@H](CCCCN)NC(=O)[C@H](Cc1c[nH]c2ccccc12)NC(=O)[C@H](CC(C)C)NC(=O)CNC(=O)CNC(=O)[C@H](CCCNC(=N)N)NC(=O)[C@@H](N)CC(=O)O)[C@@H](C)O)NC(=O)[C@H](CCCCNC(=O)[C@@H]1CCCN1C(=O)[C@@H](NC(=O)[C@H](CCCCN)NC(=O)[C@H](Cc1c[nH]c2ccccc12)NC(=O)[C@H](CC(C)C)NC(=O)CNC(=O)CNC(=O)[C@H](CCCNC(=N)N)NC(=O)[C@@H](N)CC(=O)O)[C@@H](C)O)NC(=O)[C@@H]1CCCN1C(=O)[C@@H](NC(=O)[C@H](CCCCN)NC(=O)[C@H](Cc1c[nH]c2ccccc12)NC(=O)[C@H](CC(C)C)NC(=O)CNC(=O)CNC(=O)[C@H](CCCNC(=N)N)NC(=O)[C@@H](N)CC(=O)O)[C@@H](C)O)C(=O)O)C(=O)O)[C@@H](C)O [CEA-mimotope MAP]
cytotoxic reaction on CEA negative cells [1]: no reaction
CDC cytotoxicity ([2]; pooled fifth immune sera of immunized mice diluted 1:50): 100%
CDC cytotoxicity ([2]; pooled fifth immune sera of immunized mice diluted 1:100): 51%
ADCC cytotoxicity [3]: 50%

C-RLALGDAKKY-C (CRLALGDAKKYC; disulfide 1-12; not fully specified; printed as C-RLALGDAKKY-C) [COL4, CEA mimotope selected from phage library with antibody Col-1]
competition of phage-displayed mimotope with CEA for binding to Col-1 [4]: best candidate

B1: monoclonal antibody Col-1 (Zymed Lab., San Francisco, Calif.) (antibody, from another filing, V domains shown)
VH: EVQLQQSGAELVRSGASVKMSCTASGFNIKDYYMHWVKQRPEQGLEWIGWIDPENGDTEYAPKFQGKATMTTDTSSNTAYLQLSSLTSEDTAVYYCNTRGLSTMITTRWFFDVWGAGTTVAVSS
VL: DIVLTQSPASLTVSLGLRATISCRASKSVSASGYSYMHWYQQRPGQPPKLLIYLASNLQSGVPARFSGSGSGTDFTLNIHPVEEEDAATYYCQHSRELPTFGGGTKLEIK
maximal signal (OD450-630 nm) [5]: 1.4 OD450-630 nm
